According to the supplement of paper PMC10307832:

Key:
Assay in all cases: relative viability (nuclei count vs DMSO), 5 days (fraction); higher = more cells survive
[1] = compound: C1CSC2=C(C(=O)N1)SC3=C2C=C(C=C3)O [kb NB 142-70] + CC(C)C[C@H](NC(=O)[C@H](Cc1ccccc1)NC(=O)c1cnccn1)B(O)O [Bortezomib] (partner 0.002 µM)
Summary of the method: (§1)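 A single step with final 0.05% Triton X-100, 1% formaldehyde and 1 ug/ml Hoechst fixed the cells and stained nuclei 5 days after treatment. Lung cancer cell lines in 1536-well plates had been treated by pin tool the day after seeding with one drug alone or a fixed anchor-drug dose plus five library-drug doses (not always all listed) in √10 steps, and nuclei were counted on 4× images. Relative viability is the ratio of nuclei in treated wells to nuclei in vehicle wells, taken as the median of duplicate plates.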

kb NB 142-70 + Lapatinib = compound: C1CSC2=C(C(=O)N1)SC3=C2C=C(C=C3)O [kb NB 142-70] + CS(=O)(=O)CCNCc1ccc(-c2ccc3ncnc(Nc4ccc(OCc5cccc(F)c5)c(Cl)c4)c3c2)o1 [Lapatinib] (partner 2 µM)
Summary of the method: as §1

[2] = compound: C1CSC2=C(C(=O)N1)SC3=C2C=C(C=C3)O [kb NB 142-70] + Cc1cc(Nc2cc(N3CCN(C)CC3)nc(Sc3ccc(NC(=O)C4CC4)cc3)n2)n[nH]1 [Tozasertib] (partner 0.1 µM)
Summary of the method: as §1

kb NB 142-70 + AZD7762 = compound: C1CSC2=C(C(=O)N1)SC3=C2C=C(C=C3)O [kb NB 142-70] + NC(=O)Nc1cc(-c2cccc(F)c2)sc1C(=O)N[C@H]1CCCNC1 [AZD7762] (partner 0.2 µM)
Summary of the method: as §1

kb NB 142-70 + Olaparib = compound: C1CSC2=C(C(=O)N1)SC3=C2C=C(C=C3)O [kb NB 142-70] + O=C(c1cc(Cc2n[nH]c(=O)c3ccccc23)ccc1F)N1CCN(C(=O)C2CC2)CC1 [Olaparib] (partner 8 µM)
Summary of the method: as §1

[3] = compound: NCC(=O)Nc1ccc(-n2nc(C(F)(F)F)cc2-c2ccc3c(ccc4ccccc43)c2)cc1 + C[C@@H](Oc1cc(-c2cnn(C3CCNCC3)c2)cnc1N)c1c(Cl)ccc(F)c1Cl [Crizotinib] (partner 1 µM)
Summary of the method: as §1

LU99A
relative viability ([1]; first compound 0.1 µM): 1.29 | relative viability ([1]; first compound 1 µM): 0.995 | relative viability ([1]; first compound 3.162 µM): 0.732 | relative viability (kb NB 142-70 + Lapatinib; first compound 0.1 µM): 0.977 | relative viability (kb NB 142-70 + Lapatinib; first compound 1 µM): 0.858 | relative viability (kb NB 142-70 + Lapatinib; first compound 3.162 µM): 0.71 | relative viability ([2]; first compound 0.1 µM): 0.285 | relative viability ([2]; first compound 1 µM): 0.237 | relative viability ([2]; first compound 3.162 µM): 0.195 | relative viability (kb NB 142-70 + AZD7762; first compound 0.1 µM): 0.386 | relative viability (kb NB 142-70 + AZD7762; first compound 1 µM): 0.493 | relative viability (kb NB 142-70 + AZD7762; first compound 3.162 µM): 0.462 | relative viability (kb NB 142-70 + Olaparib; first compound 0.1 µM): 0.274 | relative viability (kb NB 142-70 + Olaparib; first compound 1 µM): 0.291 | relative viability (kb NB 142-70 + Olaparib; first compound 3.162 µM): 0.251 | relative viability ([3]; first compound 0.02 µM): 0.547 | relative viability ([3]; first compound 0.06325 µM): 0.654 | relative viability ([3]; first compound 0.2 µM): 0.593 | relative viability ([3]; first compound 0.6325 µM): 0.554 | relative viability ([3]; first compound 2 µM): 0.573

ABC-1
relative viability ([1]; first compound 0.1 µM): 0.373 | relative viability ([1]; first compound 1 µM): 0.278 | relative viability ([1]; first compound 3.162 µM): 0.239 | relative viability (kb NB 142-70 + Lapatinib; first compound 0.1 µM): 0.946 | relative viability (kb NB 142-70 + Lapatinib; first compound 1 µM): 1.22 | relative viability (kb NB 142-70 + Lapatinib; first compound 3.162 µM): 1.07 | relative viability ([2]; first compound 0.1 µM): 0.178 | relative viability ([2]; first compound 1 µM): 0.165 | relative viability ([2]; first compound 3.162 µM): 0.169 | relative viability (kb NB 142-70 + AZD7762; first compound 0.1 µM): 0.936 | relative viability (kb NB 142-70 + AZD7762; first compound 1 µM): 0.927 | relative viability (kb NB 142-70 + AZD7762; first compound 3.162 µM): 0.758 | relative viability (kb NB 142-70 + Olaparib; first compound 0.1 µM): 0.712 | relative viability (kb NB 142-70 + Olaparib; first compound 1 µM): 0.746 | relative viability (kb NB 142-70 + Olaparib; first compound 3.162 µM): 0.427 | relative viability ([3]; first compound 0.02 µM): 1.33 | relative viability ([3]; first compound 0.06325 µM): 1.77 | relative viability ([3]; first compound 0.6325 µM): 1.04 | relative viability ([3]; first compound 2 µM): 0.992

NCI-H2347
relative viability ([1]; first compound 0.1 µM): 1.03 | relative viability ([1]; first compound 1 µM): 0.808 | relative viability ([1]; first compound 3.162 µM): 1.07 | relative viability (kb NB 142-70 + Lapatinib; first compound 0.1 µM): 1.02 | relative viability (kb NB 142-70 + Lapatinib; first compound 1 µM): 1.07 | relative viability (kb NB 142-70 + Lapatinib; first compound 3.162 µM): 0.936 | relative viability ([2]; first compound 0.1 µM): 0.69 | relative viability ([2]; first compound 1 µM): 0.589 | relative viability ([2]; first compound 3.162 µM): 0.506 | relative viability (kb NB 142-70 + AZD7762; first compound 0.1 µM): 0.873 | relative viability (kb NB 142-70 + AZD7762; first compound 1 µM): 0.924 | relative viability (kb NB 142-70 + AZD7762; first compound 3.162 µM): 0.737 | relative viability (kb NB 142-70 + Olaparib; first compound 0.1 µM): 0.634 | relative viability (kb NB 142-70 + Olaparib; first compound 1 µM): 0.632 | relative viability (kb NB 142-70 + Olaparib; first compound 3.162 µM): 0.568 | relative viability ([3]; first compound 0.02 µM): 0.755 | relative viability ([3]; first compound 0.06325 µM): 0.768 | relative viability ([3]; first compound 0.2 µM): 0.822 | relative viability ([3]; first compound 0.6325 µM): 0.813 | relative viability ([3]; first compound 2 µM): 0.688

NCI-H1993
relative viability ([1]; first compound 0.1 µM): 1.14 | relative viability ([1]; first compound 1 µM): 1.07 | relative viability ([1]; first compound 3.162 µM): 1.17 | relative viability (kb NB 142-70 + Lapatinib; first compound 0.1 µM): 0.71 | relative viability (kb NB 142-70 + Lapatinib; first compound 1 µM): 0.765 | relative viability (kb NB 142-70 + Lapatinib; first compound 3.162 µM): 0.856 | relative viability ([2]; first compound 0.1 µM): 0.604 | relative viability ([2]; first compound 1 µM): 0.648 | relative viability ([2]; first compound 3.162 µM): 0.536 | relative viability (kb NB 142-70 + AZD7762; first compound 0.1 µM): 0.73 | relative viability (kb NB 142-70 + AZD7762; first compound 1 µM): 0.611 | relative viability (kb NB 142-70 + AZD7762; first compound 3.162 µM): 1.03 | relative viability (kb NB 142-70 + Olaparib; first compound 0.1 µM): 1.04 | relative viability (kb NB 142-70 + Olaparib; first compound 1 µM): 0.911 | relative viability (kb NB 142-70 + Olaparib; first compound 3.162 µM): 1.04 | relative viability ([3]; first compound 0.02 µM): 0.939 | relative viability ([3]; first compound 0.06325 µM): 0.987 | relative viability ([3]; first compound 0.2 µM): 0.822 | relative viability ([3]; first compound 0.6325 µM): 1.03 | relative viability ([3]; first compound 2 µM): 0.902
